Data published in US8541588B2, “Sulfonamide derivatives” (Pfizer Limited, priority 2009, dated 2013).

These compounds were tested against T1, Nav1.7 (or SCN9A) channel; HEK cells stably transfected with hSCN9A (Homo sapiens, UniProt Q15858) (assay: Nav1.7 block, PatchXpress 7000 automated whole-cell voltage clamp, estimated IC50 (EIC50)). Settings: PatchXpress platform; hSCN9A HEK cells held at V1/2 of inactivation; estimated IC50.
T1 construct: expressed in transfected cells
T1 sequence (Q15858 whole entry): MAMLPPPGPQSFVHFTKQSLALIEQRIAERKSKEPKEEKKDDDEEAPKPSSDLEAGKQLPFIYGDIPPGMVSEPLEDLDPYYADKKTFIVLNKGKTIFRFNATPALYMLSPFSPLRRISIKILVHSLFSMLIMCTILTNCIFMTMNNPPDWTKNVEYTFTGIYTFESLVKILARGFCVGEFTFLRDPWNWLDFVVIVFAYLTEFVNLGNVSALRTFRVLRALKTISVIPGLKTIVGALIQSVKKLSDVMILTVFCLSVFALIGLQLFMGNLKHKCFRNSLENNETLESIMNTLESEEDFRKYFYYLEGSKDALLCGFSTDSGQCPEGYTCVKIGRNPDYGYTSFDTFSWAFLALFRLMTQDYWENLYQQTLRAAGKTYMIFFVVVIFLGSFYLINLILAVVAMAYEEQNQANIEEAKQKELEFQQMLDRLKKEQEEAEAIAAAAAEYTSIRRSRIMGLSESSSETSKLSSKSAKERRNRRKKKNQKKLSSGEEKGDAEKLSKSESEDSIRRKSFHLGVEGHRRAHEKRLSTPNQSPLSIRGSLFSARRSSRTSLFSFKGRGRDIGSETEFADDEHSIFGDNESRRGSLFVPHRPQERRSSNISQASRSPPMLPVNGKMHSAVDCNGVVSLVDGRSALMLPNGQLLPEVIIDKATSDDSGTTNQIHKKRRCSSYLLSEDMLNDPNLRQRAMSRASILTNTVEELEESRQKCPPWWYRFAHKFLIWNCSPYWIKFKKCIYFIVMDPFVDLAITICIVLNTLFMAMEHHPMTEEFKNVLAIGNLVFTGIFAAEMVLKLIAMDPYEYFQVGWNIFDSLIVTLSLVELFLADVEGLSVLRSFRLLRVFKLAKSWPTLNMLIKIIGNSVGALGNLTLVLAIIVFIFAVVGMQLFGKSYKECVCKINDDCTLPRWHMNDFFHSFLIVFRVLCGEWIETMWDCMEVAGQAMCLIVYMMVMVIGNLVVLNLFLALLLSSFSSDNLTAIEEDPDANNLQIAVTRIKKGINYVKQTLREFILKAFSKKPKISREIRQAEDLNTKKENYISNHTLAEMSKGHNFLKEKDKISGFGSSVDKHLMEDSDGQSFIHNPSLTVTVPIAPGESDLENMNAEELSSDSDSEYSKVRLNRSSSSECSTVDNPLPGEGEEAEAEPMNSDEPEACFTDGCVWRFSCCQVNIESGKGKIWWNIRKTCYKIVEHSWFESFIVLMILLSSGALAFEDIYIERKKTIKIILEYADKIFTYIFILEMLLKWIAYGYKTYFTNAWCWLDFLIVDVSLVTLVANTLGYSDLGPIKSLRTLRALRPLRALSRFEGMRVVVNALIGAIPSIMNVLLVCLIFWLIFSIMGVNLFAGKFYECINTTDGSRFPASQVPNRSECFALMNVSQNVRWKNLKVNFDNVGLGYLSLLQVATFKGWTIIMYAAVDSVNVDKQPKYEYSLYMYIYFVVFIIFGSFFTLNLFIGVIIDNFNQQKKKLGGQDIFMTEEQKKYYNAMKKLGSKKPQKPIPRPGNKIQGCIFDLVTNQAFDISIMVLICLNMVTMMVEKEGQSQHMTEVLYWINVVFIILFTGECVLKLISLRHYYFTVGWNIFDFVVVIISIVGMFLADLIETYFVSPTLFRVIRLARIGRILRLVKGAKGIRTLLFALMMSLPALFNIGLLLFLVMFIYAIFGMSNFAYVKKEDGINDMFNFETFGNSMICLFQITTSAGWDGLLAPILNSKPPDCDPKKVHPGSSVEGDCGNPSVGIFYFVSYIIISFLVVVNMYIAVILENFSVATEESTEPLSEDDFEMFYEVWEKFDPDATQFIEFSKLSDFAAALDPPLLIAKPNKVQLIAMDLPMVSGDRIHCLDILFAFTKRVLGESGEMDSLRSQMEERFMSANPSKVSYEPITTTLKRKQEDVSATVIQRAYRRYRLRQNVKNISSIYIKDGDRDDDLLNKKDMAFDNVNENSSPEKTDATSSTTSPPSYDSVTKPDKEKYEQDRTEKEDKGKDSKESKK
Assay type: cell-based
`N#Cc1cc(S(=O)(=O)Nc2ncns2)ccc1Oc1ccccc1-c1cccc(OC(F)(F)F)c1` [Example 55, 3-cyano-N-1,2,4-thiadiazol-5-yl-4-{[3′-(trifluoromethoxy)biphenyl-2-yl]oxy}benzenesulfonamide] was tested, and the IC50 was 920 nM.
Work on `O=S(=O)(Nc1ncns1)c1ccc(Oc2ccn(Cc3ccc(Cl)cc3)n2)c(C(F)(F)F)c1` [Example 204, 4-{[1-(4-chlorobenzyl)-1H-pyrazol-3-yl]oxy}-N-1,2,4-thiadiazol-5-yl-3-(trifluoromethyl)benzenesulfonamide] yielded an IC50 of 3140 nM.
Work on `COc1ccccc1-c1ccccc1Oc1ccc(S(=O)(=O)Nc2nccs2)c(F)c1` [Example 208, 2-fluoro-4-(2′-methoxybiphenyl-2-yloxy)-N-(thiazol-2-yl)benzenesulfonamide] yielded an IC50 of 130 nM.
For `N#Cc1cc(S(=O)(=O)Nc2ncns2)ccc1Oc1cc(F)ccc1Oc1ccccc1` [Example 74, 3-cyano-4-(5-fluoro-2-phenoxyphenoxy)-N-1,2,4-thiadiazol-5-ylbenzenesulfonamide], the IC50 was 1110 nM.
`O=S(=O)(Nc1nccs1)c1ccc(Oc2cc(C(F)(F)F)nn2-c2cc(F)ccc2F)c(F)c1` [Example 228, 4-[2-(2,5-difluoro-phenyl)-5-trifluoromethyl-2H-pyrazol-3-yloxy]-3-fluoro-N-thiazol-2-yl-benzenesulfonamide] showed an IC50 of 570 nM.
`CC(C)(C)n1ccc(-c2ccc(Oc3ccc(S(=O)(=O)Nc4nccs4)cc3C#N)c(F)c2)n1` [Example 184, 4-[4-(1-tert-butyl-1H-pyrazol-3-yl)-2-fluoro-phenoxy]-3-cyano-N-thiazol-2-yl-benzenesulfonamide] was tested, and the IC50 was 9170 nM.
In the case of `Cc1ccc(-c2ncccc2Oc2ccc(S(=O)(=O)Nc3ncns3)cc2C#N)cc1` [Example 17, 3-cyano-4-{[2-(4-methylphenyl)pyridin-3-yl]oxy}-N-1,2,4-thiadiazol-5-ylbenzenesulfonamide], the IC50 is reported as 25500 nM.
With `Cc1cccc(-c2ccc(OC(F)(F)F)cc2)c1Oc1ccc(S(=O)(=O)Nc2ncns2)cc1C#N` [Example 40, 3-cyano-4-{[3-methyl-4′-(trifluoromethoxy)biphenyl-2-yl]oxy}-N-1,2,4-thiadiazol-5-ylbenzenesulfonamide] the IC50 was 5740 nM.
For `Cn1cc(-c2ccc(Cl)cc2)c(Oc2ccc(S(=O)(=O)Nc3ncns3)cc2C#N)n1` [Example 64, 4-{[4-(4-chlorophenyl)-1-methyl-1H-pyrazol-3-yl]oxy}-3-cyano-N-1,2,4-thiadiazol-5-ylbenzenesulfonamide], the IC50 was 780 nM.
In the case of `N#Cc1cc(S(=O)(=O)Nc2nccs2)ccc1Oc1ccc(Cl)cc1-c1ccccn1` [Example 164, 4-(4-chloro-2-pyridin-2-ylphenoxy)-3-cyano-N-1,3-thiazol-2-ylbenzenesulfonamide], the IC50 is reported as 580 nM.
Work on `O=S(=O)(Nc1nccs1)c1ccc(Oc2ccc(OCc3ccccc3)c(F)c2)c(F)c1` [Example 120, 4-[4-(benzyloxy)-3-fluorophenoxy]-3-fluoro-N-1,3-thiazol-2-ylbenzenesulfonamide] yielded an IC50 of 37400 nM.
In the case of `O=S(=O)(Nc1nccs1)c1ccc(Oc2cnn(Cc3ccc(Cl)cc3)c2)c(F)c1` [Example 235, 4-(1-(4-chlorobenzyl)-1H-pyrazol-4-yloxy)-3-fluoro-N-(thiazol-2-yl)benzenesulfonamide], the IC50 is reported as 760 nM.
In the case of `Cc1ccc(Oc2ccc(S(=O)(=O)Nc3nccs3)cc2F)c(-c2ccnn2C)c1` [Example 222, 3-fluoro-4-(4-methyl-2-(1-methyl-1H-pyrazol-5-yl)phenoxy)-N-(thiazol-2-yl)benzenesulfonamide], the IC50 is reported as 60 nM.

Same assay, conditions: estimated IC50; hSCN9A HEK cells, PatchXpress platform; Examples 283-814
`Nc1cc(-c2cc(F)ccc2Oc2cc(F)c(S(=O)(=O)Nc3ncns3)cc2Cl)ccn1` [Example 405, 4-[2-(2-aminopyridin-4-yl)-4-fluorophenoxy]-5-chloro-2-fluoro-N-1,2,4-thiadiazol-5-ylbenzenesulfonamide] showed an IC50 of 2.7 nM.
`Cn1nccc1-c1cc(F)ccc1Oc1ccc(S(=O)(=O)Nc2ccncn2)cc1F` [Example 528, 3-fluoro-4-[4-fluoro-2-(1-methyl-1H-pyrazol-5-yl)phenoxy]-N-pyrimidin-4-ylbenzenesulfonamide] was tested, and the IC50 was 740 nM.
With `CCn1nc(C(F)(F)F)cc1-c1ccc(Oc2ccc(S(=O)(=O)Nc3cscn3)cc2C#N)cc1` [Example 401, 3-cyano-4-{4-[1-ethyl-3-(trifluoromethyl)-1H-pyrazol-5-yl]phenoxy}-N-1,3-thiazol-4-ylbenzenesulfonamide] the IC50 was 2700 nM.
`Cn1nccc1-c1ccc(I)cc1Oc1ccc(S(=O)(=O)Nc2ncns2)cc1C#N` [Example 507, 3-cyano-4-[5-iodo-2-(1-methyl-1H-pyrazol-5-yl)phenoxy]-N-1,2,4-thiadiazol-5-ylbenzenesulfonamide] was tested, and the IC50 was 11 nM.
With `CC(C)C1CN(c2ccc(Oc3ccc(S(=O)(=O)Nc4nccs4)cc3C#N)cc2)C(=O)N1` (stereo not drawn) [Example 485, 3-cyano-4-[4-(4-isopropyl-2-oxoimidazolidin-1-yl)phenoxy]-N-1,3-thiazol-2-ylbenzenesulfonamide] the IC50 was over 1000 nM.
`N#Cc1cc(S(=O)(=O)Nc2cscn2)ccc1Oc1cccc(Cc2cc[nH]n2)c1` [Example 768, 3-cyano-4-[3-(1H-pyrazol-3-ylmethyl)phenoxy]-N-1,3-thiazol-4-ylbenzenesulfonamide] was tested, and the IC50 was 11000 nM.
For `Nc1ccc(-c2cc(Cl)ccc2Oc2cc(F)c(S(=O)(=O)Nc3ncns3)cc2F)cn1` [Example 410, 4-[2-(6-aminopyridin-3-yl)-4-chlorophenoxy]-2,5-difluoro-N-1,2,4-thiadiazol-5-ylbenzenesulfonamide], the IC50 was 29 nM.
`CC(C)(C)n1cc(Cc2cccc(Oc3ccc(S(=O)(=O)Nc4cscn4)cc3C#N)c2)cn1` [Example 419, 4-{3-[(1-tert-butyl-1H-pyrazol-4-yl)methyl]phenoxy}-3-cyano-N-1,3-thiazol-4-ylbenzenesulfonamide] was tested, and the IC50 was 2100 nM.
With `N#Cc1cc(S(=O)(=O)Nc2nccs2)ccc1Oc1ccc(-n2cc(Cl)cn2)c(Cl)c1` [Example 384, 4-[3-chloro-4-(4-chloro-1H-pyrazol-1-yl)phenoxy]-3-cyano-N-1,3-thiazol-2-ylbenzenesulfonamide] the IC50 was 350 nM.
In the case of `N#Cc1cc(S(=O)(=O)Nc2cscn2)ccc1Oc1ccc(C(F)(F)F)cc1-c1cnn(C2CNC2)c1` [Example 727, 4-[2-(1-azetidin-3-yl-1H-pyrazol-4-yl)-4-(trifluoromethyl)phenoxy]-3-cyano-N-1,3-thiazol-4-ylbenzenesulfonamide], the IC50 is reported as 1900 nM.
Compound `Cn1nc(C(F)(F)F)cc1-c1ccc(Oc2ccc(S(=O)(=O)Nc3nccs3)cc2C#N)cn1` [Example 647, 3-cyano-4-({6-[1-methyl-3-(trifluoromethyl)-1H-pyrazol-5-yl]pyridin-3-yl}oxy)-N-1,3-thiazol-2-ylbenzenesulfonamide] has an IC50 of 2900 nM.
`N#Cc1cc(S(=O)(=O)Nc2ncc(Cl)cn2)ccc1Oc1ccccc1-c1ccccc1` [Example 430, 4-(biphenyl-2-yloxy)-N-(5-chloropyrimidin-2-yl)-3-cyanobenzenesulfonamide] was tested, and the IC50 was 12000 nM.
In the case of `CCNC(=O)c1ccc(-c2cccc(Oc3ccc(S(=O)(=O)Nc4ccc(F)cn4)cc3C#N)c2)cc1` [Example 570, 3′-(2-cyano-4-{[(5-fluoropyridin-2-yl)amino]sulfonyl}phenoxy)-N-ethylbiphenyl-4-carboxamide], the IC50 is reported as 8600 nM.

Same assay, conditions: estimated IC50; hSCN9A HEK cells, PatchXpress platform; Examples 815-1040
In the case of `Cc1nsc(NS(=O)(=O)c2cc(Cl)c(Oc3ccc(Cl)cc3-c3c[nH]nc3N)cc2F)n1` [Example 872, 4-[2-(3-amino-1H-pyrazol-4-yl)-4-chlorophenoxy]-5-chloro-2-fluoro-N-(3-methyl-1,2,4-thiadiazol-5-yl)benzenesulfonamide], the IC50 is reported as 12 nM.
`Cn1nccc1-c1cc(Cl)ccc1Oc1ccc(S(=O)(=O)Nc2ncccn2)cc1C#N` [Example 881, 4-[4-chloro-2-(1-methyl-1H-pyrazol-5-yl)phenoxy]-3-cyano-N-pyrimidin-2-ylbenzenesulfonamide] was tested, and the IC50 was 260 nM.
Work on `Cc1nocc1-c1cc(Cl)ccc1Oc1ccc(S(=O)(=O)Nc2ncns2)cc1C#N` [Example 961, 4-[4-chloro-2-(3-methylisoxazol-4-yl)phenoxy]-3-cyano-N-1,2,4-thiadiazol-5-ylbenzenesulfonamide] yielded an IC50 of 7.9 nM.
`O=C(c1cccc(-c2cc(Cl)ccc2Oc2cc(F)c(S(=O)(=O)Nc3cscn3)cc2Cl)c1)N1CCC1` [Example 856, 4-{[3′-(azetidin-1-ylcarbonyl)-5-chlorobiphenyl-2-yl]oxy}-5-chloro-2-fluoro-N-1,3-thiazol-4-ylbenzenesulfonamide] gave an IC50 of 22 nM.
`N#Cc1cc(S(=O)(=O)Nc2nncs2)ccc1Oc1ccc(Cl)cc1-c1ccnc(N)c1` [Example 818, 4-[2-(2-aminopyridin-4-yl)-4-chlorophenoxy]-3-cyano-N-1,3,4-thiadiazol-2-ylbenzenesulfonamide] showed an IC50 of 320 nM.
With `O=S(=O)(Nc1ncns1)c1cc(F)c(Oc2cc(F)c(Cl)cc2-c2ccnnc2)cc1F` [Example 936, 4-(4-chloro-5-fluoro-2-pyridazin-4-ylphenoxy)-2,5-difluoro-N-1,2,4-thiadiazol-5-ylbenzenesulfonamide] the IC50 was 8 nM.
In the case of `Cc1nsc(NS(=O)(=O)c2cc(Cl)c(Oc3ccc(C(F)(F)F)cc3-c3ccnnc3)cc2F)n1` [Example 871, 5-chloro-2-fluoro-N-(3-methyl-1,2,4-thiadiazol-5-yl)-4-[2-pyridazin-4-yl-4-(trifluoromethyl)phenoxy]benzenesulfonamide], the IC50 is reported as 25 nM.
With `N#Cc1ccc(-c2ccnnc2)c(Oc2cc(F)c(S(=O)(=O)Nc3ncns3)cc2Cl)c1` [Example 951, 5-chloro-4-(5-cyano-2-pyridazin-4-ylphenoxy)-2-fluoro-N-1,2,4-thiadiazol-5-ylbenzenesulfonamide] the IC50 was 40 nM.
`N#Cc1cc(S(=O)(=O)Nc2ncns2)ccc1Oc1ccc(C(F)(F)F)cc1-c1cccc(CN2CCC2)c1` [Example 988, 4-{[3′-(azetidin-1-ylmethyl)-5-(trifluoromethyl)biphenyl-2-yl]oxy}-3-cyano-N-1,2,4-thiadiazol-5-ylbenzenesulfonamide] gave an IC50 of 0.7 nM.
For `Nc1cccc(-c2cc(OC(F)(F)F)ccc2Oc2cc(F)c(S(=O)(=O)Nc3ncns3)cc2F)n1` [Example 830, 4-[2-(6-aminopyridin-2-yl)-4-(trifluoromethoxy)phenoxy]-2,5-difluoro-N-1,2,4-thiadiazol-5-ylbenzenesulfonamide], the IC50 was 23 nM.
